In patent publication US20080201790A1, “Method and product for regulating cell responsiveness to external signals” (priority 1993, published 2008):

Tests used:
B-Raf = assay: Raf activation assay in L929 cells, B-Raf; type: cell-based, murine
Procedure: Cell lines and culture. L929 cells (ATCC CCL1 were maintained in Dulbecco's modified Eagle's medium with 5% newborn calf serum and 5% bovine calf serum (BCS) supplemented with 100 ug/ml streptomycin and 100 U/ml penicillin. The cells were grown in 10 cm dishes at 37° C. in 7.5% CO2. Cells were made quiescent where indicated by incubation in Dulbecco's modified Eagle's medium and 0.1% bovine serum albumin for 24 h. Recombinant murine TNFα and recombinant human bFGF (147aa) were from R&D Systems, Minneapolis, Minn. Cells were pretreated where indicated with the MEK-1 inhibitor PD#098059 (Parke-Davis Pharmaceutical Corp. Ann Arbor, Mich.) for 1 h at 37° C. Cells were stimulated by incubation with the indicated cytokine or growth factor for various times at 37° C. […] JNK activity was measured using a solid state kinase assay in which glutathione S-transferase-c-Jun (1-79) (GST-JUN) cound to glutathione-Sepharose 4B beads was used to affinity purify JNK and then JNK activity was measured in an in vitro kinase assay using the sepharose bound GST-Jun as a substrate (Hibi, M., et al. (1993) Genes & Development 7:2135-2148). […] MAPK Assay MAPK activity was measured exactly as described previously (Gardner, A. M., et al. (1994) Meth. Enzymol. 238:258-270) with the exception that MonoQ FPLC fractionation was replaced by step elution from a DEAE-Sephacel column using 0.5 M NaCl in loading buffer. […]

MEKK1 = assay: Cellular localization of MEKK1 in Swiss 3T3 cells, antibody staining; type: cell-based; details: serum starved Swiss 3T3 cells, 10 minutes
Source text: (§1) Cells were fixed and stained with an antibody specifically recognizing either MEKK1 or MEKK2. Secondary FITC-conjugated anti-rabbit IgG antibody was used for staining.

L929 fibroblasts = assay: TNF-induced apoptosis in L929 fibroblasts with Lac Switch MEKK1COOH expression; type: cell-based, murine
Source text: In L929 cells expressing the MEKK1COOH domain, exposure to TNF and IPTG increased the percentage of apoptotic cells to 40%, approximately a 2-fold increase.

MEKK2 = assay: Cellular localization of MEKK2 in Swiss 3T3 cells, antibody staining; type: cell-based; details: serum starved Swiss 3T3 cells, 10 minutes
Source text: as §1

**Q.** Which “activation of B-Raf (phosphorylation of kinase-inactive MEK-1)” value (B-Raf) does the source give for “bFGF: recombinant human bFGF (147aa), basic fibroblast growth factor” here?
**A.** activation of both B-Raf and C-Raf

**Q.** Which results are given for TNFα?
**A.** cellular localization of MEKK1 (MEKK1): had no effect on the cellular localization of MEKK1; activation of B-Raf (phosphorylation of kinase-inactive MEK-1) (B-Raf): does not significantly activate either isoform of Raf; percentage of apoptotic cells, control L929 cells (L929 fibroblasts; TNF exposure, presence or absence of IPTG): approximately 20%; level of apoptotic cells, L929 cells expressing the kinase inactive mutant (L929 fibroblasts; exposure to TNF): did not increase the level of apoptotic cells above levels seen in controls; increase of percentage of apoptotic cells, MEKK1COOH cells versus control (L929 fibroblasts; exposure to TNF and IPTG): ~2 fold; percentage of apoptotic cells, L929 cells expressing the MEKK1COOH domain (L929 fibroblasts; exposure to TNF and IPTG): 40%; cellular localization of MEKK2 (MEKK2): induced a translocation of MEKK2 to the plasma membrane
